Assay results: ChEMBL document CHEMBL4330132, “5-Keto-3-cyano-2,4-diaminothiophenes as selective maternal embryonic leucine zipper kinase inhibitors” (Bioorg Med Chem Lett, 2019)

Legend:
[1] = tested on: Phosphatidylinositol 4,5-bisphosphate 3-kinase catalytic subunit alpha isoform (Homo sapiens), P42336 [C420R]; experiment: Binding affinity to human partial length PIK3CA C420R mutant (R108 to N1068 residues) expressed in mammalian expression system assessed as residual binding level at 1 uM by Kinomescan method relative to control
[2] = target: Serine/threonine-protein kinase 10 (Homo sapiens) (UniProt O94804); experiment: Binding affinity to wild-type human partial length LOK (E16 to V314 residues) expressed in bacterial expression system assessed as residual binding level at 1 uM by Kinomescan method relative to control
[3] = target: Serine/threonine-protein kinase Nek3 (Homo sapiens) (UniProt P51956); experiment: Binding affinity to wild-type human full length NEK3 (M1 to R506 residues) expressed in mammalian expression system assessed as residual binding level at 1 uM by Kinomescan method relative to control
[4] = target: Uncharacterized serine/threonine-protein kinase SBK3 (Homo sapiens) (UniProt P0C264); experiment: Binding affinity to wild-type human partial length SgK110 (L22 to R329 residues) expressed in bacterial expression system assessed as residual binding level at 1 uM by Kinomescan method relative to control
[5] = target: Serine/threonine-protein kinase 38 (Homo sapiens) (UniProt Q15208); experiment: Binding affinity to wild-type human partial length NDR1 (N33 to E449 residues) expressed in mammalian expression system assessed as residual binding level at 1 uM by Kinomescan method relative to control
[6] = target: Serine/threonine-protein kinase pim-2 (Homo sapiens) (UniProt Q9P1W9); experiment: Binding affinity to wild-type human partial length PIM2 (M1 to E291 residues) expressed in bacterial expression system assessed as residual binding level at 1 uM by Kinomescan method relative to control
[7] = target: Serine/threonine-protein kinase NIM1 (Homo sapiens) (UniProt Q8IY84); experiment: Binding affinity to wild-type human partial length NIM1 (Q44 to N355 residues) expressed in mammalian expression system assessed as residual binding level at 1 uM by Kinomescan method relative to control
[8] = target: Myosin light chain kinase family member 4 (Homo sapiens) (UniProt Q86YV6); experiment: Binding affinity to wild-type human partial length MYLK4 (V79 to S380 residues) expressed in bacterial expression system assessed as residual binding level at 1 uM by Kinomescan method relative to control
[9] = target: Tyrosine-protein kinase HCK (Homo sapiens) (UniProt P08631); experiment: Binding affinity to wild-type human full length HCK (M22 to P526 residues) expressed in bacterial expression system assessed as residual binding level at 1 uM by Kinomescan method relative to control
[10] = target: 5'-AMP-activated protein kinase catalytic subunit alpha-2 (Homo sapiens) (UniProt P54646); experiment: Binding affinity to wild-type human partial length AMPK alpha2 (M1 to E306 residues) expressed in bacterial expression system assessed as residual binding level at 1 uM by Kinomescan method relative to control
[11] = target: Serine/threonine-protein kinase Nek6 (Homo sapiens) (UniProt Q9HC98); experiment: Binding affinity to wild-type human full length NEK6 (M8 to T313 residues) expressed in bacterial expression system assessed as residual binding level at 1 uM by Kinomescan method relative to control
[12] = target: Serine/threonine-protein kinase SIK1 (Homo sapiens) (UniProt P57059); experiment: Binding affinity to wild-type human partial length SIK (M1 to Y304 residues) expressed in bacterial expression system assessed as residual binding level at 1 uM by Kinomescan method relative to control
[13] = target: Hepatocyte growth factor receptor (Homo sapiens) (UniProt P08581); experiment: Binding affinity to wild-type human partial length MET (D1010 to S1367 residues) expressed in bacterial expression system assessed as residual binding level at 1 uM by Kinomescan method relative to control
[14] = target: Dual specificity tyrosine-phosphorylation-regulated kinase 1B (Homo sapiens) (UniProt Q9Y463); experiment: Binding affinity to wild-type human full length DYRK1B (M1 to S629 residues) expressed in bacterial expression system assessed as residual binding level at 1 uM by Kinomescan method relative to control
[15] = target: Tyrosine-protein kinase Yes (Homo sapiens) (UniProt P07947); experiment: Binding affinity to wild-type human partial length YES (T257 to L543 residues) expressed in bacterial expression system assessed as residual binding level at 1 uM by Kinomescan method relative to control
[16] = target: Maternal embryonic leucine zipper kinase (Homo sapiens, UniProt Q14680); experiment: Binding affinity to wild-type human full length MELK (M1 to V651 residues) expressed in bacterial expression system assessed as residual binding level at 1 uM by Kinomescan method relative to control
[17] = target: Serine/threonine-protein kinase MRCK beta (Homo sapiens) (UniProt Q9Y5S2); experiment: Binding affinity to wild-type human partial length MRCKB (L56 to S417 residues) expressed in bacterial expression system assessed as residual binding level at 1 uM by Kinomescan method relative to control
[18] = target: Platelet-derived growth factor receptor beta (Homo sapiens) (UniProt P09619); experiment: Binding affinity to wild-type human partial length PDGFRB (V582 to Y1009 residues) expressed in bacterial expression system assessed as residual binding level at 1 uM by Kinomescan method relative to control
[19] = target: Serine/threonine-protein kinase tousled-like 1 (Homo sapiens) (UniProt Q9UKI8); experiment: Binding affinity to wild-type human partial length TLK1 (K447 to A754 residues) expressed in bacterial expression system assessed as residual binding level at 1 uM by Kinomescan method relative to control
[20] = target: Dual serine/threonine and tyrosine protein kinase (Homo sapiens) (UniProt Q6XUX3); experiment: Binding affinity to wild-type human full length RIPK5 (M1 to T929 residues) expressed in mammalian expression system assessed as residual binding level at 1 uM by Kinomescan method relative to control
[21] = target: Cyclin-dependent kinase 14 (Homo sapiens) (UniProt O94921); experiment: Binding affinity to wild-type human full length PFTK1 (M1 to H451 residues) expressed in bacterial expression system assessed as residual binding level at 1 uM by Kinomescan method relative to control
[22] = target: BMP-2-inducible protein kinase (Homo sapiens) (UniProt Q9NSY1); experiment: Binding affinity to wild-type human partial length BIKE (S34 to N329 residues) expressed in bacterial expression system assessed as residual binding level at 1 uM by Kinomescan method relative to control
[23] = target: Tyrosine-protein kinase JAK1 (Homo sapiens) (UniProt P23458); experiment: Binding affinity to wild-type human partial length JAK1 JH1 catalytic domain (V856 to K1154 residues) expressed in bacterial expression system assessed as residual binding level at 1 uM by Kinomescan method relative to control
[24] = target: Cyclin-dependent kinase 4/cyclin D1 (Homo sapiens) (UniProt P11802+P24385); experiment: Binding affinity to wild-type human full length CDK4/cyclinD1 (M1 to E303 residues) expressed in mammalian expression system assessed as residual binding level at 1 uM by Kinomescan method relative to control

Myosin light chain kinase family member 4 (Homo sapiens), sequence (Q86YV6 whole entry, the tested form may be a part): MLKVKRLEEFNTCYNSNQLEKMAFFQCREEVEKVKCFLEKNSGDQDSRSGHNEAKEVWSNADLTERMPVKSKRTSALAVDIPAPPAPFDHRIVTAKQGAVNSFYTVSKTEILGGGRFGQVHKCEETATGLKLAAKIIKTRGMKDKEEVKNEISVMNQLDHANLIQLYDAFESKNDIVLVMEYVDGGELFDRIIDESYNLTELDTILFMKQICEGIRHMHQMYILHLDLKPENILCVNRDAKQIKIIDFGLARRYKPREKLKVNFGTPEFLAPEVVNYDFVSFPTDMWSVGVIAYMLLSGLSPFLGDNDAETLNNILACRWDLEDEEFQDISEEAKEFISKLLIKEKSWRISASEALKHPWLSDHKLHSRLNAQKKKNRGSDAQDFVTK
Cyclin-dependent kinase 14 (Homo sapiens), sequence (O94921 whole entry, the tested form may be a part): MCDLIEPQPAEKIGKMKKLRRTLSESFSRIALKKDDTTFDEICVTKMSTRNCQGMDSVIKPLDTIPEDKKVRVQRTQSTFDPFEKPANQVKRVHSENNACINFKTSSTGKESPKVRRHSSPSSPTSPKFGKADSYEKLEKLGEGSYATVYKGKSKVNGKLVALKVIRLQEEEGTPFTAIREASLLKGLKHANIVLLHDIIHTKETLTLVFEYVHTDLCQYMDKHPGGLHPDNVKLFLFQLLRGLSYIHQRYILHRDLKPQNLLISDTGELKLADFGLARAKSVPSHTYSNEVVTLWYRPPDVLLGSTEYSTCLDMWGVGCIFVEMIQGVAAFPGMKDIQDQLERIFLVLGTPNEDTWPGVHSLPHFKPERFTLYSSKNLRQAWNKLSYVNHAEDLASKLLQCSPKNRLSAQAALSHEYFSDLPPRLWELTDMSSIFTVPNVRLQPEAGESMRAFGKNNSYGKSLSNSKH
Serine/threonine-protein kinase NIM1 (Homo sapiens), sequence (Q8IY84 whole entry, the tested form may be a part): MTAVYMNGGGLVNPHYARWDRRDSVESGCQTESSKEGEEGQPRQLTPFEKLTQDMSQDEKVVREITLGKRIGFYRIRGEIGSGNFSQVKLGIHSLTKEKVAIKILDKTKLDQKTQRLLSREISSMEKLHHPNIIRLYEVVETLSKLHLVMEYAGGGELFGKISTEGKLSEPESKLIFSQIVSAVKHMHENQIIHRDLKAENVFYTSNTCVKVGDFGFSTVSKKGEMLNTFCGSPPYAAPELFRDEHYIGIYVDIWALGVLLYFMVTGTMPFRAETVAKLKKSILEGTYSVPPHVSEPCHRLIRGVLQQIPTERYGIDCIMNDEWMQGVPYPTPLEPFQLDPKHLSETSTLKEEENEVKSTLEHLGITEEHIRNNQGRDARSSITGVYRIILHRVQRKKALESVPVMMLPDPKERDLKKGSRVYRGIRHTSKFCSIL
Tyrosine-protein kinase HCK (Homo sapiens), sequence (P08631 2-526 limits assumed): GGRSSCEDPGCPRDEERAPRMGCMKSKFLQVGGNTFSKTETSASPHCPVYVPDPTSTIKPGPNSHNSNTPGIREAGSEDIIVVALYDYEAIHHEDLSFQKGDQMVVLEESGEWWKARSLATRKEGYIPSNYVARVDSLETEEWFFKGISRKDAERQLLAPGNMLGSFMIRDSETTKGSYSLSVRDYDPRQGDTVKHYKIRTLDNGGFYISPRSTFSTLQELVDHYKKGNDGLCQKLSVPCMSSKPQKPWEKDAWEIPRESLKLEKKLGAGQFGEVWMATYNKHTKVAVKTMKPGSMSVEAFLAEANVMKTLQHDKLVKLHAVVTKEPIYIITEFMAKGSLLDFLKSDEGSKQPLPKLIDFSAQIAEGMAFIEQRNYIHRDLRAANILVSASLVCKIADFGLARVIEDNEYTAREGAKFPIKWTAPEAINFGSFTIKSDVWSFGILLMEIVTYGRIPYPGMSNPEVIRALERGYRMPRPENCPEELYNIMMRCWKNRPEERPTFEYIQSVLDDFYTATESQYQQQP
Serine/threonine-protein kinase SIK1 (Homo sapiens), sequence (P57059 whole entry, the tested form may be a part): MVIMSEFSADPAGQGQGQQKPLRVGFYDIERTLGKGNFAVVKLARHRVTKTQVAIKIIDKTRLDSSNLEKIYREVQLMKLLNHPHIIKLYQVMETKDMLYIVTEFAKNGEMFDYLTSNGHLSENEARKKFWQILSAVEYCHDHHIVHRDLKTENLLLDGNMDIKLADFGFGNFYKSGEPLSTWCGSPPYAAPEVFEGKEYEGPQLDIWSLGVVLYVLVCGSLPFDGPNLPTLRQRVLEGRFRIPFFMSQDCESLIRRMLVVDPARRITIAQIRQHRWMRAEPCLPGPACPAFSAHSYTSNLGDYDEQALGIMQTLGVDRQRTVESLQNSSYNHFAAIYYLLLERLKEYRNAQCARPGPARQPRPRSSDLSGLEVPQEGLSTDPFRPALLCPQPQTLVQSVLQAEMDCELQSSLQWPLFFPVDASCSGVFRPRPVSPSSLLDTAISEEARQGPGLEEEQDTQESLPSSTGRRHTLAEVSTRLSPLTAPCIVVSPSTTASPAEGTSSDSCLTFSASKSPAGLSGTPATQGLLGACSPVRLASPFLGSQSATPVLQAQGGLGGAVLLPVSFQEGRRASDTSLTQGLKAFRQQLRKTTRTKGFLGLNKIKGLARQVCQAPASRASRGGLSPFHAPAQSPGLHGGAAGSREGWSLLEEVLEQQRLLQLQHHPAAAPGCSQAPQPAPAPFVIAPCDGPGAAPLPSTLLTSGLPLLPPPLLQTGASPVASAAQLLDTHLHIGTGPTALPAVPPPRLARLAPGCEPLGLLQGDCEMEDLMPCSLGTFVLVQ
Serine/threonine-protein kinase 10 (Homo sapiens), sequence (O94804 whole entry, looked up, the tested form may be a part): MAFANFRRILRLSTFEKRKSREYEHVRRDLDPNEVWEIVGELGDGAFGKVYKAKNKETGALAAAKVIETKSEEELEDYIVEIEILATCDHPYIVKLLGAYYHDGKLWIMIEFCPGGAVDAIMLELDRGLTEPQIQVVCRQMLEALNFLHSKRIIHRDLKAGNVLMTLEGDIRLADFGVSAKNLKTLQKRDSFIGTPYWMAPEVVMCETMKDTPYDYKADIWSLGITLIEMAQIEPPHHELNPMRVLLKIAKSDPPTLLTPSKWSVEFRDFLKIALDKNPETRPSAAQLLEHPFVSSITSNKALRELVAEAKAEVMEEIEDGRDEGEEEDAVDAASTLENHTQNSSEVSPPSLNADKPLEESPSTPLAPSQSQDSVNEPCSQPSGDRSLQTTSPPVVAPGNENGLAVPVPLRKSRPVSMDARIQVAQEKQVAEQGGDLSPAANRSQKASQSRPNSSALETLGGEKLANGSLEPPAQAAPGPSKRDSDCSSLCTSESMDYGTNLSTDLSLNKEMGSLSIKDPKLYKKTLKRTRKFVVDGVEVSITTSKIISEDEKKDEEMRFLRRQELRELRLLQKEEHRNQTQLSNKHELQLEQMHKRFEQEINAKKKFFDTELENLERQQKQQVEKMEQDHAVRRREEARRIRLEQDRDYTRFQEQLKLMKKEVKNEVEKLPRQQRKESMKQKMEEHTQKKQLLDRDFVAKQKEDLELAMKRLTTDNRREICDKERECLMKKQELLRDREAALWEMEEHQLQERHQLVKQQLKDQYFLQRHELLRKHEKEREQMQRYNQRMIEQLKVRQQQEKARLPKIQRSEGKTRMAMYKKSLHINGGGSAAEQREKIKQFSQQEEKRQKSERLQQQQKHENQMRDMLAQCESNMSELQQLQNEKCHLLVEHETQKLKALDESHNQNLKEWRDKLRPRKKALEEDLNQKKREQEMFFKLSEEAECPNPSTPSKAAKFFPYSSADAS
Serine/threonine-protein kinase pim-2 (Homo sapiens), sequence (Q9P1W9 whole entry, looked up, the tested form may be a part): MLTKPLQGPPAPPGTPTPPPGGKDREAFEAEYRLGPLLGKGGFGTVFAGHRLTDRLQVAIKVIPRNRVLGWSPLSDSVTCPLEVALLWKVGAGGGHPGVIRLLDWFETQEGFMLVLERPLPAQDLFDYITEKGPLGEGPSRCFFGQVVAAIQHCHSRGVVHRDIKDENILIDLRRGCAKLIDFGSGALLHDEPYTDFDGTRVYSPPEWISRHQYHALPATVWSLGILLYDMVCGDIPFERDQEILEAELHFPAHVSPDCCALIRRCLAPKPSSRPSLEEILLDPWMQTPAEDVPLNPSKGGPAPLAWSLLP
BMP-2-inducible protein kinase (Homo sapiens), sequence (Q9NSY1 whole entry, looked up, the tested form may be a part): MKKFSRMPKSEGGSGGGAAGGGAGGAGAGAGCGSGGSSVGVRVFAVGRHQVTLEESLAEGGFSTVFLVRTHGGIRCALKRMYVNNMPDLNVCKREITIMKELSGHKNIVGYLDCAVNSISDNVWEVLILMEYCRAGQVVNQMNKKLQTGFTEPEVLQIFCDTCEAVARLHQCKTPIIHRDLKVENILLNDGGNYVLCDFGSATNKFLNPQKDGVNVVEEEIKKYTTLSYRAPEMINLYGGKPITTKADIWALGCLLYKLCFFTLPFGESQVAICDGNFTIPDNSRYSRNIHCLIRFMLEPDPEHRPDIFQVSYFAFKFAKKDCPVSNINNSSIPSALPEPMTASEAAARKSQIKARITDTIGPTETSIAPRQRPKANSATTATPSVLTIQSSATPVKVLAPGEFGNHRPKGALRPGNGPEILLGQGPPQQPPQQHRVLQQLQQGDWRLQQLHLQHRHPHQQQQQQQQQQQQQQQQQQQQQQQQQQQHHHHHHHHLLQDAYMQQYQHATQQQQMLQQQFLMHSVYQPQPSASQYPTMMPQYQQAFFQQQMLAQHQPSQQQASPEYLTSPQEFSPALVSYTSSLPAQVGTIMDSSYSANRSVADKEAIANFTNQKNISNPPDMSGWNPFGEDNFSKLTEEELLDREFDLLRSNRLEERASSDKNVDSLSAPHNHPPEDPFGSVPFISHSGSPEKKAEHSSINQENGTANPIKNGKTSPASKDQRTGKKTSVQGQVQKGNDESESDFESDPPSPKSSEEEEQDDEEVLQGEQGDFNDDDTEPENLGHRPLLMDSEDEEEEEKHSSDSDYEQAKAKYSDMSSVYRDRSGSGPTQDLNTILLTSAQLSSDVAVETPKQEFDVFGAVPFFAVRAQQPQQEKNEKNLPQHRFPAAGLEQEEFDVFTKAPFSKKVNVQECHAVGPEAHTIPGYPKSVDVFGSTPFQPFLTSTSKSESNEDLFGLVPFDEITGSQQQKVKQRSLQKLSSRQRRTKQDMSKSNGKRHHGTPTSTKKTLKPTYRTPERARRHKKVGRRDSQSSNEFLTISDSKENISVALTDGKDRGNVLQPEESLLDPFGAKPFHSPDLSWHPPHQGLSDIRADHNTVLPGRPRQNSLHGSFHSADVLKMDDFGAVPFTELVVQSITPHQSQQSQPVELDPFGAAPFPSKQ

`CC(C)Nc1sc(C(=O)c2ccc(Cl)s2)c(N)c1C#N` was tested. Which Activity [1] did it give?
The Activity was 100%.

And the Activity [2]?
The Activity was 82%.

What about the Activity [3] of the same molecule?
The Activity was 100%.

What about the Activity [4] of the same molecule?
The Activity was 100%.

And the Activity [5]?
The Activity was 74%.

And the Activity [6]?
The Activity was 100%.

And the Activity [7]?
The Activity was 97%.

And the Activity [8]?
The Activity was 96%.

What about the Activity [9] of the same molecule?
The Activity was 90%.

And the Activity [10]?
The Activity was 100%.

And the Activity [11]?
The Activity was 100%.

What about the Activity [12] of the same molecule?
The Activity was 100%.

What about the Activity [13] of the same molecule?
Its Activity is 68%.

What about the Activity [14] of the same molecule?
The Activity was 64%.

What about the Activity [15] of the same molecule?
Its Activity is 56%.

What about the Activity [16] of the same molecule?
The Activity was 14%.

And the Activity [17]?
Its Activity is 90%.

And the Activity [18]?
The Activity was 54%.

And the Activity [19]?
Its Activity is 100%.

What about the Activity [20] of the same molecule?
The Activity was 85%.

What about the Activity [21] of the same molecule?
Its Activity is 93%.

What about the Activity [22] of the same molecule?
Its Activity is 56%.

And the Activity [23]?
Its Activity is 100%.

And the Activity [24]?
The Activity was 100%.
